SMILES strings stand for the structures.

Usually IC50 stands for the concentration at which inhibition is half-maximal. The low end stands for greater potency in that assay, the high end for weaker potency in that assay.

Sequence of Human PPAR-gamma (P37231 whole entry): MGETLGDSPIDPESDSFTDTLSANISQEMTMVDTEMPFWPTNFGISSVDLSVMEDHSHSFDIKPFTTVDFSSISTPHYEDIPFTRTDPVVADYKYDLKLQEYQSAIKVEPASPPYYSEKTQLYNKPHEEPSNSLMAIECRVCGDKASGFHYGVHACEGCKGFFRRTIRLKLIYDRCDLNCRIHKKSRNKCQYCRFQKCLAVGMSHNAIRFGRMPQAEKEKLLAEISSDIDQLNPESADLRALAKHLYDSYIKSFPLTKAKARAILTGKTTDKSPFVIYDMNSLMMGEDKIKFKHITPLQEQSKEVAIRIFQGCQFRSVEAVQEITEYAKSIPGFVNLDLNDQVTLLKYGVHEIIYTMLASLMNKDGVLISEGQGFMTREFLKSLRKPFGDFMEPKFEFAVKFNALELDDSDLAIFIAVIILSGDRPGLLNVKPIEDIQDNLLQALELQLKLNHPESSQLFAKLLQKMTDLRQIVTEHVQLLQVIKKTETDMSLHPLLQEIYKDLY

This assay addresses Human PPAR-gamma (Homo sapiens (Human), UniProt P37231). Description: Human PPAR-gamma (h) (agonist radioligand) binding assay. To be noted: inhibition of radioligand specific binding; class ranges defined in μM. The protocol: The compounds of the present invention were assayed for binding to the Human PPAR-gamma (h) (agonist radioligand) Assay and were tested at several concentrations for IC50 determination.
Compound binding was calculated as a % inhibition of the binding of a radioactively labelled ligand specific for each target, as described in (FERRY, Gilles, et al. Binding of prostaglandins to human PPARγ: tool assessment and new natural ligands. European journal of pharmacology, 2001, vol. 417, no 1, p. 77-89).
The IC50 values (concentration causing a half-maximal inhibition of control specific binding) was determined by non-linear regression analysis of the competition curves generated with mean replicate values using Hill equation curve fitting
where Y=specific binding, A=left asymptote of the curve, D=right asymptote of the curve, C=compound concentration, C50=IC50, and nH=slope factor. This analysis was performed using software developed at EUROFINS Cerep Company (Hill software) and validated by comparison with data generated by the commercial software SigmaPlot® 4.0 for Windows® (© 1997 by SPSS Inc.).
As for `N#Cc1ccc(F)c(C(=O)Nc2ccc(-c3cccnc3)nc2)c1` [Example 9, N-([2,3′-bipyridin]-5-yl)-5-cyano-2-fluorobenzamide], the IC50 is below 0.2 µM.

In the case of `N#Cc1ccc(Cl)c(C(=O)Nc2ccc(-c3cccnc3)nc2)c1` [Example 5, N-([2,3′-bipyridin]-5-yl)-2-chloro-5-cyanobenzamide], the IC50 is below 0.2 µM.

`CN1CCN(c2ccc(NC(=O)c3cc(C#N)ccc3Cl)cn2)CC1` [Example 14, 2-chloro-5-cyano-N-(6-(4-methylpiperazin-1-yl)pyridin-3-yl)benzamide] had an IC50 of 1 to 50 µM.

Take `CN1CCN(c2cc(NC(=O)c3cc(C#N)ccc3Cl)ccn2)CC1` [Example 15, 2-chloro-5-cyano-N-(2-(4-methylpiperazin-1-yl)pyridin-4-yl)benzamide]: the 50% inhibitory concentration (IC50) is at least 50 µM.

The molecule `N#Cc1ccc(Cl)c(C(=O)Nc2ccc(-c3ccc(F)cc3)nc2)c1` [Example 4, 2-chloro-5-cyano-N-(6-(4-fluorophenyl)pyridin-3-yl)benzamide] had an IC50 below 0.2 µM.

As for `N#Cc1ccc(Cl)c(C(=O)Nc2ccnc(-c3ccccc3)c2)c1` [Example 1, 2-chloro-5-cyano-N-(2-phenylpyridin-4-yl)benzamide], the IC50 was below 0.2 µM.

In the case of `N#Cc1ccc(Cl)c(C(=O)Nc2ccc(-c3ccccn3)nc2)c1` [Example 13, N-([2,2′-bipyridin]-5-yl)-2-chloro-5-cyanobenzamide], the IC50 is below 0.2 µM.

The molecule `N#Cc1ccc(Cl)c(C(=O)Nc2ccnc(-c3cccnc3)c2)c1` [Example 6, N-([2,3′-bipyridin]-4-yl)-2-chloro-5-cyanobenzamide] had an IC50 of 1 to 50 µM.

`N#Cc1ccc(Cl)c(C(=O)Nc2ccc(-c3ccccc3)nc2)c1` [Example 2, 2-chloro-5-cyano-N-(6-phenylpyridin-3-yl)benzamide] returned an IC50 below 0.2 µM.

The molecule `N#Cc1ccc(Cl)c(C(=O)Nc2ccnc(N3CCOCC3)c2)c1` [Example 16, 2-chloro-5-cyano-N-(2-morpholinopyridin-4-yl)benzamide] registered a concentration for half-maximal inhibition (IC50) of 1 to 50 µM.

Regarding `N#Cc1ccc(Cl)c(C(=O)Nc2ccc(N3CCOCC3)nc2)c1` [Example 17, 2-chloro-5-cyano-N-(6-morpholinopyridin-3-yl)benzamide], the 50% inhibitory concentration (IC50) is 1 to 50 µM.

`N#Cc1ccc(F)c(C(=O)Nc2ccc(-c3ccc(F)cc3)nc2)c1` [Example 10, 5-cyano-2-fluoro-N-(6-(4-fluorophenyl)pyridin-3-yl)benzamide] returned an IC50 below 0.2 µM.

The molecule `N#Cc1ccc(Cl)c(C(=O)Nc2ccnc(-c3ccc(F)cc3)c2)c1` [Example 3, 2-chloro-5-cyano-N-(2-(4-fluorophenyl)pyridin-4-yl)benzamide] showed an IC50 of 0.2 to 1 µM.

Molecule `N#Cc1ccc(Cl)c(C(=O)Nc2ccc(-c3ccncc3)nc2)c1` [Example 7, N-([2,4′-bipyridin]-5-yl)-2-chloro-5-cyanobenzamide] displayed an IC50 of 1 to 50 µM.
